Laboratory results as given in patent US20230210831A1, “CHRONIC KIDNEY DISEASE TREATMENT OR PREVENTION METHOD” (Japan Tobacco Inc., priority 2019, published 2023).

Key:
Type in all cases: cell-based
[1] = tested on: Salmonella typhimurium TA100; experiment: Ames test (reverse mutation test), TA100
Procedure: (§1) The solvent used herein was dimethyl sulfoxide (DMSO, 100 µL/plate).
(§2) The mixtures were preincubated at 37° C. for 20 minutes while shaking. […] Two plates per treatment were used.

[2] = tested on: Escherichia coli WP2uvrA; experiment: Ames test (reverse mutation test), WP2uvrA
Procedure: as §1, §2

[3] = tested on: Salmonella typhimurium TA98; experiment: Ames test (reverse mutation test), TA98
Procedure: as §1, §2

[4] = tested on: Salmonella typhimurium TA1535; experiment: Ames test (reverse mutation test), TA1535
Procedure: as §1, §2

[5] = tested on: Salmonella typhimurium TA1537; experiment: Ames test (reverse mutation test), TA1537
Procedure: as §1, §2

Nc1cc(-c2cccc(OC(F)(F)F)c2)n(-c2cccc(F)c2)n1 [Metabolite G]
Number of revertant colonies TA100 ([1]; S9 Mix +, dose 2.3 µg/plate): 153 | Number of revertant colonies TA100 ([1]; S9 Mix +, dose 6.9 µg/plate): 248 | Number of revertant colonies TA100 ([1]; S9 Mix +, dose 21 µg/plate): 506 | Number of revertant colonies TA100 ([1]; S9 Mix +, dose 62 µg/plate): 630 | Number of revertant colonies TA100 ([1]; S9 Mix +, dose 185 µg/plate): 380 | Number of revertant colonies TA100 ([1]; S9 Mix +, dose 556 µg/plate): 82 | Number of revertant colonies TA100 ([1]; S9 Mix +, dose 1667 µg/plate): 94 | Number of revertant colonies TA100 ([1]; S9 Mix +, dose 5000 µg/plate): 226 | Number of revertant colonies TA100 ([1]; S9 Mix -, dose 2.3 µg/plate): 91 | Number of revertant colonies TA100 ([1]; S9 Mix -, dose 6.9 µg/plate): 101 | Number of revertant colonies TA100 ([1]; S9 Mix -, dose 21 µg/plate): 93 | Number of revertant colonies TA100 ([1]; S9 Mix -, dose 62 µg/plate): 90 | Number of revertant colonies TA100 ([1]; S9 Mix -, dose 185 µg/plate): 80 | Number of revertant colonies TA100 ([1]; S9 Mix -, dose 556 µg/plate): 59 | Number of revertant colonies TA100 ([1]; S9 Mix -, dose 1667 µg/plate): 61 | Number of revertant colonies TA100 ([1]; S9 Mix -, dose 5000 µg/plate): 47 | potential to induce reverse mutations ([1]; TA100 with S9 mix): showed potential to induce reverse mutations | Number of revertant colonies WP2uvrA ([2]; S9 Mix +, dose 2.3 µg/plate): 34 | Number of revertant colonies WP2uvrA ([2]; S9 Mix +, dose 6.9 µg/plate): 39 | Number of revertant colonies WP2uvrA ([2]; S9 Mix +, dose 21 µg/plate): 22 | Number of revertant colonies WP2uvrA ([2]; S9 Mix +, dose 62 µg/plate): 24 | Number of revertant colonies WP2uvrA ([2]; S9 Mix +, dose 185 µg/plate): 16 | Number of revertant colonies WP2uvrA ([2]; S9 Mix +, dose 556 µg/plate): 14 | Number of revertant colonies WP2uvrA ([2]; S9 Mix +, dose 1667 µg/plate): 9 | Number of revertant colonies WP2uvrA ([2]; S9 Mix +, dose 5000 µg/plate): 14 | Number of revertant colonies WP2uvrA ([2]; S9 Mix -, dose 2.3 µg/plate): 26 | Number of revertant colonies WP2uvrA ([2]; S9 Mix -, dose 6.9 µg/plate): 23 | Number of revertant colonies WP2uvrA ([2]; S9 Mix -, dose 21 µg/plate): 16 | Number of revertant colonies WP2uvrA ([2]; S9 Mix -, dose 62 µg/plate): 14 | Number of revertant colonies WP2uvrA ([2]; S9 Mix -, dose 185 µg/plate): 15 | Number of revertant colonies WP2uvrA ([2]; S9 Mix -, dose 556 µg/plate): 10 | Number of revertant colonies WP2uvrA ([2]; S9 Mix -, dose 1667 µg/plate): 17 | Number of revertant colonies WP2uvrA ([2]; S9 Mix -, dose 5000 µg/plate): 6 | Number of revertant colonies TA98 ([3]; S9 Mix +, dose 2.3 µg/plate): 35 | Number of revertant colonies TA98 ([3]; S9 Mix +, dose 6.9 µg/plate): 63 | Number of revertant colonies TA98 ([3]; S9 Mix +, dose 21 µg/plate): 76 | Number of revertant colonies TA98 ([3]; S9 Mix +, dose 62 µg/plate): 75 | Number of revertant colonies TA98 ([3]; S9 Mix +, dose 185 µg/plate): 45 | Number of revertant colonies TA98 ([3]; S9 Mix +, dose 556 µg/plate): 12 | Number of revertant colonies TA98 ([3]; S9 Mix +, dose 1667 µg/plate): 11 | Number of revertant colonies TA98 ([3]; S9 Mix +, dose 5000 µg/plate): 0 | Number of revertant colonies TA98 ([3]; S9 Mix -, dose 2.3 µg/plate): 31 | Number of revertant colonies TA98 ([3]; S9 Mix -, dose 6.9 µg/plate): 30 | Number of revertant colonies TA98 ([3]; S9 Mix -, dose 21 µg/plate): 31 | Number of revertant colonies TA98 ([3]; S9 Mix -, dose 62 µg/plate): 30 | Number of revertant colonies TA98 ([3]; S9 Mix -, dose 185 µg/plate): 13 | Number of revertant colonies TA98 ([3]; S9 Mix -, dose 556 µg/plate): 15 | Number of revertant colonies TA98 ([3]; S9 Mix -, dose 1667 µg/plate): 8 | Number of revertant colonies TA98 ([3]; S9 Mix -, dose 5000 µg/plate): 0 | Number of revertant colonies TA1535 ([4]; S9 Mix +, dose 556 µg/plate): 5 | Number of revertant colonies TA1535 ([4]; S9 Mix +, dose 1667 µg/plate): 4 | Number of revertant colonies TA1535 ([4]; S9 Mix -, dose 185 µg/plate): 9 | Number of revertant colonies TA1535 ([4]; S9 Mix -, dose 556 µg/plate): 0 | Number of revertant colonies TA1535 ([4]; S9 Mix -, dose 1667 µg/plate): 0 | potential to induce reverse mutations ([4]; TA1535 without S9 mix): showed potential to induce reverse mutations | Number of revertant colonies TA1537 ([5]; S9 Mix +, dose 2.3 µg/plate): 13 | Number of revertant colonies TA1537 ([5]; S9 Mix +, dose 6.9 µg/plate): 13 | Number of revertant colonies TA1537 ([5]; S9 Mix +, dose 21 µg/plate): 16 | Number of revertant colonies TA1537 ([5]; S9 Mix +, dose 62 µg/plate): 15 | Number of revertant colonies TA1537 ([5]; S9 Mix +, dose 185 µg/plate): 13 | Number of revertant colonies TA1537 ([5]; S9 Mix +, dose 556 µg/plate): 0 | Number of revertant colonies TA1537 ([5]; S9 Mix +, dose 1667 µg/plate): 0 | Number of revertant colonies TA1537 ([5]; S9 Mix +, dose 5000 µg/plate): 0 | Number of revertant colonies TA1537 ([5]; S9 Mix -, dose 2.3 µg/plate): 15 | Number of revertant colonies TA1537 ([5]; S9 Mix -, dose 6.9 µg/plate): 15 | Number of revertant colonies TA1537 ([5]; S9 Mix -, dose 21 µg/plate): 17 | Number of revertant colonies TA1537 ([5]; S9 Mix -, dose 62 µg/plate): 7 | Number of revertant colonies TA1537 ([5]; S9 Mix -, dose 185 µg/plate): 0 | Number of revertant colonies TA1537 ([5]; S9 Mix -, dose 556 µg/plate): 0 | Number of revertant colonies TA1537 ([5]; S9 Mix -, dose 1667 µg/plate): 0 | Number of revertant colonies TA1537 ([5]; S9 Mix -, dose 5000 µg/plate): 0
